Measurements published in PubChem BioAssay (NCI).
Values joined by “and” are separate entries in the source; they are usually repeats but may differ in a detail not shown here. Equal values may be shown once.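 Briefly, cells in 96-well plates were exposed to five compound concentrations for 48 h, and endpoints were estimated by linear interpolation. GI50 = concentration required for 50% inhibition of growth. TGI marks complete inhibition of growth.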

Key:
Assay in all cases: NCI-60 cell line screen, 48 h
K-562 leukemia = test system: K-562 leukemia
NCI-H522 lung = test system: NCI-H522 lung
CAKI-1 renal = test system: CAKI-1 renal
DU-145 prostate = test system: DU-145 prostate
HCT-15 colon = test system: HCT-15 colon
HL-60(TB) leukemia = test system: HL-60(TB) leukemia
HCT-116 colon = test system: HCT-116 colon
UACC-62 melanoma = test system: UACC-62 melanoma
U251 CNS = test system: U251 CNS
786-0 renal = test system: 786-0 renal

Structure (SMILES)	GI50 (K-562 leukemia)	TGI (K-562 leukemia)	GI50 (NCI-H522 lung)	TGI (NCI-H522 lung)	GI50 (CAKI-1 renal)	TGI (CAKI-1 renal)	GI50 (DU-145 prostate)	TGI (DU-145 prostate)	GI50 (HCT-15 colon)	TGI (HCT-15 colon)	GI50 (HL-60(TB) leukemia)	TGI (HL-60(TB) leukemia)	GI50 (HCT-116 colon)	TGI (HCT-116 colon)	GI50 (UACC-62 melanoma)	TGI (UACC-62 melanoma)	GI50 (U251 CNS)	TGI (U251 CNS)	GI50 (786-0 renal)	TGI (786-0 renal)
CCN(CC)CCNC(Cc1ccccc1)c1ccc(OCc2ccccc2)cc1 (stereo not drawn)	2.37 µM	7.16 µM	10.2 µM	22.7 µM	4.52 µM	16.7 µM	8.54 µM	21.1 µM	3.36 µM	13 µM	2.77 µM	7.79 µM	4.25 µM	25.5 µM	1.92 µM	3.89 µM	3.41 µM	15.3 µM	3.61 µM	17.9 µM
NC(CSC(c1ccccc1)(c1ccccc1)c1ccccc1)C(=O)NCC(=O)O (stereo not drawn)	3.19 µM	> 100 µM	2.39 µM	7.13 µM	37.1 µM	> 100 µM	18.9 µM	> 100 µM	4.89 µM	> 100 µM	2.85 µM	12 µM	3.97 µM	> 100 µM	7.25 µM	> 100 µM	3.64 µM	63.8 µM	6.78 µM	> 100 µM
CCOc1cccc(/C=N/NC(=O)c2cccc(Nc3ccnc(C(F)(F)F)c3)c2)c1O	1.32 µM	30.6 µM	4.54 µM	32.5 µM	0.772 µM	32 µM	1.1 µM	> 47.3 µM	1.1 µM	> 100 µM	0.262 µM	1.01 µM	0.477 µM	> 69.4 µM	0.551 µM	11.7 µM	0.886 µM	> 47.1 µM	1.18 µM	> 20.7 µM
Nc1ncnc2c1ncn2C1C=C(CO)C(O)C1O (stereo not drawn)	–	39.6 µM	–	35.6 µM	–	> 93.6 µM	–	35.8 µM	–	> 53.7 µM	–	2.73 µM	–	12.6 µM	–	> 57.5 µM	–	> 100 µM	–	> 100 µM
O=C(O)CSCCc1ccccc1	–	> 100 µM	–	> 100 µM	–	> 100 µM	–	> 100 µM	–	> 100 µM	–	1.98 µM	–	> 100 µM	–	> 100 µM	–	> 100 µM	–	> 100 µM
CCCCCCCCCCCCCCCCCCOC[C@H](COP(=O)(O)O[C@H]1[C@H](O)[C@@H](O)[C@H](O)C[C@H]1O)OC	> 100 µM and 18.4 µM	> 100 µM and 55.2 µM	36.5 µM and 11.4 µM	> 100 µM and 25.4 µM	87.4 µM and 9.51 µM	> 100 µM and 25.1 µM	> 100 µM and 17.3 µM	> 100 µM and 34.5 µM	37.2 µM and 14.3 µM	> 100 µM and 28.9 µM	35 µM and 9.09 µM	> 100 µM and 23.3 µM	> 100 µM and 15.8 µM	> 100 µM and 30.7 µM	> 100 µM and 16.4 µM	> 100 µM and 30.1 µM	33 µM and 5.89 µM	> 100 µM and 19.2 µM	> 100 µM and 15.9 µM	> 100 µM and 57.8 µM
O=C(O)c1ccc(CN2CCC(CN[C@@H]3C[C@H]3c3ccccc3)CC2)cc1	> 100 µM	> 100 µM	> 100 µM	> 100 µM	> 100 µM	> 100 µM	> 100 µM	> 100 µM	> 100 µM	> 100 µM	> 100 µM	> 100 µM	> 100 µM	> 100 µM	> 100 µM	> 100 µM	> 100 µM	> 100 µM	> 100 µM	> 100 µM
COC(=O)c1ccc2[nH]c(O)c(C(=Nc3ccc(N(C)C(=O)CN4CCN(C)CC4)cc3)c3ccc4c(c3)OCO4)c2c1	0.056 µM	6.16 µM	0.859 µM	3.66 µM	0.26 µM	4.07 µM	1.03 µM	6.06 µM	1.52 µM	5.8 µM	0.415 µM	1.82 µM	0.197 µM	1.52 µM	2.1 µM	6.86 µM	0.884 µM	2.5 µM	0.692 µM	2.14 µM
C#CC1(O)C(COP(=O)(O)OCC(COP(=O)(O)OCC2OC(n3cc(F)c(=O)[nH]c3=O)CC2O)OCCCCCCCCCCCCCCCCCC)OC(n2ccc(N)nc2=O)C1O (stereo not drawn)	0.338 µM	> 100 µM	0.712 µM	> 34.8 µM	0.0293 µM	1.16 µM	0.106 µM	> 71.9 µM	0.134 µM	> 100 µM	0.982 µM	> 100 µM	< 0.01 µM	> 40.7 µM	0.196 µM	2.69 µM	0.135 µM	> 100 µM	0.0379 µM	17 µM
O=C1NC(=S)S/C1=C/c1ccc2c(c1)OCO2	> 100 µM	> 100 µM	> 100 µM	> 100 µM	> 100 µM	> 100 µM	> 100 µM	> 100 µM	> 100 µM	> 100 µM	77.3 µM	> 100 µM	> 100 µM	> 100 µM	> 100 µM	> 100 µM	> 100 µM	> 100 µM	> 100 µM	> 100 µM
CCN1C(=O)c2ccc3c4c(ccc(c24)C1=O)C(=O)N(CCCNCc1ccccc1OC)C3=O	0.936 µM	4.27 µM	1.19 µM	2.68 µM	0.791 µM	2.47 µM	1.22 µM	2.5 µM	0.291 µM	1.07 µM	1.11 µM	3.6 µM	0.329 µM	1.14 µM	0.468 µM	1.63 µM	1.25 µM	3.32 µM	1.33 µM	5.88 µM
O=C(/C=C/c1ccccc1)Nc1ncc(Cc2ccccc2Cl)s1	0.223 µM	> 100 µM	0.474 µM	> 100 µM	0.329 µM	> 100 µM	0.41 µM	> 100 µM	0.237 µM	> 100 µM	0.285 µM	0.872 µM	0.375 µM	> 100 µM	0.326 µM	> 100 µM	0.397 µM	> 100 µM	0.774 µM	> 100 µM
CN(C)Cc1cc(C(F)(F)F)ccc1C(O)(c1ccccc1)c1ccccc1	–	24.4 µM	–	35 µM	–	31.2 µM	–	> 100 µM	–	28.6 µM	–	24.7 µM	–	26.8 µM	–	26 µM	–	24.9 µM	–	27.7 µM
CN(C)CCC(=O)N1C/C(=C\c2ccc(Cl)c(Cl)c2)C(=O)/C(=C/c2ccc(Cl)c(Cl)c2)C1	–	0.572 µM	–	0.455 µM	–	0.984 µM	–	0.867 µM	–	0.493 µM	–	0.162 µM	–	0.331 µM	–	1.72 µM	–	0.437 µM	–	0.323 µM
CNC(=O)OCc1nc(SSC(C)(C)C)n(C)c1COC(=O)NC	–	7.06 µM	–	2.69 µM	–	3.94 µM	–	33.3 µM	–	4.14 µM	–	2.66 µM	–	3.26 µM	–	5.09 µM	–	25.6 µM	–	9.12 µM
COc1ccc2c(c1)NC1=C(C(=O)OC1)C2c1cc(OC)c(OC)c(OC)c1 (stereo not drawn)	< 0.01 µM	> 100 µM	< 0.01 µM	< 0.01 µM	< 0.0127 µM	> 100 µM	< 0.01 µM	< 0.01 µM	< 0.01 µM	> 100 µM	< 0.01 µM	< 0.01 µM	< 0.01 µM	> 100 µM	< 0.01 µM	> 100 µM	< 0.01 µM	> 100 µM	< 0.01 µM	> 100 µM
C=CC(=O)N1CCC(Oc2cc3c(Nc4ccc(Cl)c(Cl)c4F)ncnc3cc2OC)CC1	3.98 µM and 2.68 µM	> 100 µM	< 0.01 µM and 0.00141 µM	4.19 µM and 0.782 µM	–	12.6 µM and 2.36 µM	–	15.4 µM and > 10 µM	2.52 µM and 2.23 µM	15.6 µM and > 10 µM	8.97 µM and 3.77 µM	48.5 µM and > 10 µM	5.28 µM and 3.72 µM	18.9 µM and > 10 µM	3.25 µM and 2.15 µM	18.7 µM and > 10 µM	7.13 µM and 3.33 µM	27 µM and > 10 µM	1.96 µM and 1.63 µM	17.7 µM and > 10 µM
CC(=O)OC1OC([C@H]2c3cccc(O)c3C(=O)c3c(O)cc(C)cc32)C(O)C(O)C1O (stereo partly drawn)	0.203 µM	> 33.5 µM	0.0479 µM	19.9 µM	0.0773 µM	0.544 µM	0.281 µM	12.5 µM	0.0385 µM	2 µM	0.0157 µM	0.0472 µM	< 0.01 µM	1.18 µM	< 0.0219 µM	1.41 µM	< 0.0164 µM	0.244 µM	0.0334 µM	1.99 µM
CS(=O)(=O)CCNCc1coc(-c2ccc3ncnc(Nc4ccc(OCc5ccccc5)cc4)c3c2)c1	4.54 µM	11 µM	3.32 µM	6.9 µM	3.98 µM	13.4 µM	3.75 µM	> 25 µM	4.15 µM	9.53 µM	4.15 µM	9.13 µM	3.88 µM	7.53 µM	4.31 µM	8.18 µM	4.72 µM	> 14.2 µM	4.16 µM	9.12 µM
O=C1C=CC(=O)C2C1C1(Cl)C(Cl)=C(Cl)C2(Cl)C1(Cl)Cl (stereo not drawn)	2.58 µM	10.8 µM	3.73 µM	13.1 µM	2.84 µM	12.1 µM	3.73 µM	15.6 µM	4.11 µM	22.4 µM	2.71 µM	11 µM	3.51 µM	14.6 µM	5.19 µM	19.2 µM	5.76 µM	19.1 µM	12.5 µM	30.1 µM
CCN(CC)CCCC(CCl)Nc1ccnc2cc(Cl)ccc12 (stereo not drawn)	3.42 µM and 3.99 µM	15.7 µM	25.7 µM and 25.1 µM	67.8 µM and > 73.6 µM	22.1 µM and 16.2 µM	47.5 µM and 44.8 µM	49.6 µM and 47.1 µM	> 100 µM	24.9 µM and 23.9 µM	> 100 µM	15.5 µM and 7.99 µM	72.8 µM and > 31.6 µM	9.81 µM and 6.94 µM	25.2 µM and 30.4 µM	20 µM and 6.69 µM	38.7 µM and 34.8 µM	23.4 µM and > 50 µM	69.7 µM and > 100 µM	14.8 µM and 18 µM	32.8 µM and 62 µM
